Results: patent US20260130933A1, “PHARMACEUTICAL COMPOSITION FOR PREVENTION OR TREATMENT OF NEPHROPATHY AND/OR DIABETES MELLITUS, COMPRISING ENAVOGLIFLOZIN” (DAEWOONG PHARMACEUTICAL CO., LTD., priority 2022, published 2026)

Assay: Example 3: phase 3 trial, enavogliflozin 0.3 mg vs dapagliflozin 10 mg once a day for 24 weeks added to metformin and gemigliptin in patients with type 2 diabetes (same endpoints, rescue drug)
Format: in vivo, human
Method: 1) when Metformin (≥1,000 mg/Day) was Administered at a Constant Dose for at Least 8 Weeks Prior to Pre-Visit (Pre-Screening) • Metformin (≥1,000 mg/day) and gemigliptin (50 mg/day) were co-administered during the 8-week stabilization period. […] 4) when Metformin (≥1,000 mg/Day) and Gemigliptin (50 mg/Day) were Co-Administered at Constant Doses for at Least 8 Weeks Prior to Pre-Visit (Prescreening) • Without a separate stabilization period, Pre-visit (pre-screening) was Visit 1 (screening).
Subjects who met the inclusion/exclusion criteria continued to receive metformin and gemigliptin while receiving a placebo of the clinical trial drug in a single-blind (subject-blinded) state for a 2-week run-in period.
Here, the randomized subjects were stratified according to the administration therapy (co-administration with two or less agents (one or two agents) or three or more agents) of a conventional hypoglycemic agent (before washout of another hypoglycemic agent) within 24 weeks prior to obtaining written informed consent and by an HbA1c value (<8% or ≥8%) at Visit 1 (screening) measured in the central laboratory.
The randomized subjects were administered two tablets of the clinical trial drug corresponding to each administration group once a day, and then visited the institution at weeks 6, 12, 18, and 24 during the 24-week administration period to conduct efficacy and safety assessments. In addition, during the clinical trial period, they were instructed to exercise regularly and control their diet without changing their daily life patterns.
• 1) Change in HbA1c at week 24 after administration of clinical trial drug compared to Visit 2 (randomization)
• 1) Change in HbA1c at each time point of weeks 6, 12, and 18 after administration of clinical trial drug compared to Visit 2 (randomization) • 2) Change in FPG at each time point of weeks 6, 12, 18, and 24 after administration of clinical trial drug compared to Visit 2 (randomization) • 3) Proportion of subjects achieving HbA1c<7% at each time point of weeks 6, 12, 18, and 24 after administration of clinical trial drug • 4) Proportion of subjects achieving HbA1c<6.5% at each time point of weeks 6, 12, 18, and 24 after administration of clinical trial drug • 5) Proportion of subjects achieving therapeutic response (HbA1c change (HbA1c at Visit 2—HbA1c at each evaluation time point)>0.5% or HbA1c<7% at each evaluation time point compared to Visit 2 (randomization)) at each time point of weeks 6, 12, 18, and 24 after administration of clinical trial drug • 6) Proportion of subjects achieving therapeutic response (HbA1c change (HbA1c at Visit 2—HbA1c at each evaluation time point)>0.7% or HbA1c<7% at each evaluation time point compared to Visit 2 (randomization)) at each time point of weeks 6, 12, 18, and 24 after administration of clinical trial drug • 7) Proportion of subjects achieving therapeutic response (HbA1c change (HbA1c at Visit 2—HbA1c at each evaluation time point)>1% or HbA1c<7% at each evaluation time point compared to Visit 2 (randomization)) at each time point of weeks 6, 12, 18, and 24 after administration of clinical trial drug

[1] = week 6, modified per-protocol set 1, enavogliflozin 0.3 mg, dapagliflozin 10 mg
[2] = week 6, modified per-protocol set 2
[3] = week 6, modified per-protocol set 2, enavogliflozin 0.3 mg, dapagliflozin 10 mg
[4] = week 6, per-protocol set, enavogliflozin 0.3 mg, dapagliflozin 10 mg

CCOc1ccc(Cc2cc([C@@H]3O[C@H](CO)[C@@H](O)[C@H](O)[C@H]3O)ccc2Cl)cc1 [Dapagliflozin, reference compound]
HbA1c, Mean (SD) (Baseline, PPS): 7.83% | HbA1c, Median (Baseline, PPS): 7.64% | HbA1c change from baseline, ANCOVA LS mean (SE) (Week 24, PPS): −0.86 % p | HbA1c change from baseline, Mean (SD) (Week 24, PPS): −0.89 % p | HbA1c change from baseline, Median (Week 24, PPS): −0.86 % p | HbA1c, Mean (SD) (Week 24, PPS): 6.94% | HbA1c, Median (Week 24, PPS): 6.81% | FPG change from baseline, LS mean (SE) (week 6): −22.71(1.39) mg/dL | HDL-C change from baseline, LS mean (SE) (week 6): 1.13(0.56) mg/dL | HOMA-IR change from baseline, LS mean (SE) (week 6): −0.99(0.14) | HOMA-β change from baseline, LS mean (SE) (week 6): 3.20(3.04) | HbA1c change from baseline, LS mean (SE) (week 6): −0.70(0.03) % p | LDL-C change from baseline, LS mean (SE) (week 6): 1.91(1.78) mg/dL | UACR change from baseline, LS mean (SE) (week 6): −14.85(3.36) g/kg | UGCR change from baseline, LS mean (SE) (week 6): 45.75(2.14) mg/mg | adiponectin change from baseline, LS mean (SE) (week 6): 0.37(0.33) μg/mL | body weight change from baseline, LS mean (SE) (week 6): −1.80(0.16) kg | diastolic blood pressure change from baseline, LS mean (SE) (week 6): −1.88(0.67) mmHg | fasting C-peptide change from baseline, LS mean (SE) (week 6): −0.04(0.02) ng/mL | leptin change from baseline, LS mean (SE) (week 6): −2.03(0.45) ng/mL | systolic blood pressure change from baseline, LS mean (SE) (week 6): −3.49(0.87) mmHg | total cholesterol change from baseline, LS mean (SE) (week 6): 2.63(1.93) mg/dL | triglyceride change from baseline, LS mean (SE) (week 6): −5.39(4.38) mg/dL | Change from baseline in HDL-C, ANCOVA LS mean [1]: 1.13 mg/dL | Change from baseline in HDL-C, Mean [1]: 0.94 mg/dL | Change from baseline in HDL-C, Median [1]: 1.00 mg/dL | Change from baseline in LDL-C, ANCOVA LS mean [1]: 1.91 mg/dL | Change from baseline in LDL-C, Mean [1]: 1.40 mg/dL | Change from baseline in LDL-C, Median [1]: 1.00 mg/dL | Change from baseline in total cholesterol, ANCOVA LS mean [1]: 2.63 mg/dL | Change from baseline in total cholesterol, Mean [1]: 1.55 mg/dL | Change from baseline in total cholesterol, Median [1]: 2.00 mg/dL | Change from baseline in triglycerides, ANCOVA LS mean [1]: -5.39 mg/dL | Change from baseline in triglycerides, Mean [1]: -10.00 mg/dL | Change from baseline in triglycerides, Median [1]: 1.00 mg/dL | Fasting HDL-C, Mean [1]: 48.39 mg/dL | Fasting HDL-C, Median [1]: 48.00 mg/dL | Fasting LDL-C, Mean [1]: 78.50 mg/dL | Fasting LDL-C, Median [1]: 70.00 mg/dL | Fasting total cholesterol, Mean [1]: 145.04 mg/dL | Fasting triglycerides, Mean [1]: 121.81 mg/dL | Fasting triglycerides, Median [1]: 98.00 mg/dL | fasting Total cholesterol, Median [1]: 136.00 mg/dL | Change from baseline in diastolic blood pressure, ANCOVA LS mean [2]: −1.88 mmHg | Change from baseline in diastolic blood pressure, Mean [2]: −1.57 mmHg | Change from baseline in diastolic blood pressure, Median [2]: −2.00 mmHg | Diastolic blood pressure, Mean [2]: 72.20 mmHg | Diastolic blood pressure, Median [2]: 72.00 mmHg | Change from baseline in systolic blood pressure, ANCOVA LS mean [3]: −3.49 mmHg | Change from baseline in systolic blood pressure, Mean [3]: −3.23 mmHg | Change from baseline in systolic blood pressure, Median [3]: −3.50 mmHg | Systolic blood pressure, Mean [3]: 120.64 mmHg | Systolic blood pressure, Median [3]: 119.00 mmHg | Adiponectin, Mean (week 6, per-protocol set): 6.69 µg/mL | Adiponectin, Median (week 6, per-protocol set): 5.80 µg/mL | Change from baseline in HOMA-IR, ANCOVA LS mean (week 6, per-protocol set): −0.99 | Change from baseline in HOMA-IR, Mean (week 6, per-protocol set): −0.92 | Change from baseline in HOMA-IR, Median (week 6, per-protocol set): −0.72 | Change from baseline in HOMA-β, ANCOVA LS mean (week 6, per-protocol set): 3.20 | Change from baseline in HOMA-β, Mean (week 6, per-protocol set): 4.48 | Change from baseline in HOMA-β, Median (week 6, per-protocol set): 5.30 | Change from baseline in UACR, ANCOVA LS mean (week 6, per-protocol set): -14.85 g/kg | Change from baseline in UACR, Mean (week 6, per-protocol set): -7.25 g/kg | Change from baseline in UACR, Median (week 6, per-protocol set): -0.40 g/kg | Change from baseline in UGCR, ANCOVA LS mean (week 6, per-protocol set): 45.75 mg/mg | Change from baseline in UGCR, Mean (week 6, per-protocol set): 43.58 mg/mg | Change from baseline in UGCR, Median (week 6, per-protocol set): 42.62 mg/mg | Change from baseline in adiponectin, ANCOVA LS mean (week 6, per-protocol set): 0.37 µg/mL | Change from baseline in adiponectin, Mean (week 6, per-protocol set): 0.31 µg/mL | Change from baseline in adiponectin, Median (week 6, per-protocol set): 0.34 µg/mL | Change from baseline in leptin, ANCOVA LS mean (week 6, per-protocol set): -2.03 ng/mL | Change from baseline in leptin, Mean (week 6, per-protocol set): -2.04 ng/mL | Change from baseline in leptin, Median (week 6, per-protocol set): -1.26 ng/mL | HOMA-IR (insulin resistance), Mean (week 6, per-protocol set): 1.90 | HOMA-IR (insulin resistance), Median (week 6, per-protocol set): 1.66 | HOMA-β (beta-cell function), Mean (week 6, per-protocol set): 44.56 | HOMA-β (beta-cell function), Median (week 6, per-protocol set): 36.75 | Leptin, Mean (week 6, per-protocol set): 8.78 ng/mL | Leptin, Median (week 6, per-protocol set): 7.03 ng/mL | UACR, Mean (week 6, per-protocol set): 23.20 g/kg | UACR, Median (week 6, per-protocol set): 11.20 g/kg | UGCR, Mean (week 6, per-protocol set): 45.12 mg/mg | UGCR, Median (week 6, per-protocol set): 43.37 mg/mg | Body weight, Mean [4]: 65.20 kg | Change from baseline in FPG, ANCOVA LS mean [4]: -22.71 mg/dL | Change from baseline in FPG, Mean [4]: -22.87 mg/dL | Change from baseline in FPG, Median [4]: -18.50 mg/dL | Change from baseline in HbA1c, ANCOVA LS mean [4]: −0.70 % p | Change from baseline in HbA1c, Mean [4]: −0.72 % p | Change from baseline in HbA1c, Median [4]: −0.65 % p | Change from baseline in body weight, ANCOVA LS mean [4]: -1.80 kg | Change from baseline in body weight, Mean [4]: -1.68 kg | Change from baseline in body weight, Median [4]: -1.55 kg | Change from baseline in fasting C-peptide, ANCOVA LS mean [4]: -0.04 ng/mL | Change from baseline in fasting C-peptide, Mean [4]: -0.04 ng/mL | Change from baseline in fasting C-peptide, Median [4]: -0.03 ng/mL | FPG, Mean [4]: 117.64 mg/dL | FPG, Median [4]: 116.50 mg/dL | Fasting C-peptide, Mean [4]: 0.65 ng/mL | Fasting C-peptide, Median [4]: 0.63 ng/mL | HbA1c, Mean [4]: 7.10%
